Reference: ChEMBL document CHEMBL4765237, “Structural optimization and structure-activity relationship studies of N-phenyl-7,8-dihydro-6H-pyrimido[5,4-b][1,4]oxazin-4-amine derivatives as a new class of inhibitors of RET and its drug resistance mutants” (Eur J Med Chem, 2018)
Active and inactive are the calls of the source. The rule behind the calls is not given here.

Columns and labels:
[1] = biological target: Proto-oncogene tyrosine-protein kinase receptor Ret (Homo sapiens, UniProt P07949)
[2] = tested on: BaF3; assay: Growth inhibition of mouse BaF3 cells harboring RET M918T mutant incubated for 3 days by MTT assay; format: functional; conditions: BaF3, 72 h, time 3 day
[3] = Growth inhibition of […] NIH3T3 cells incubated for 3 days by MTT assay; format: functional; conditions: NIH3T3, 72 h; time 3 day
[4] = biological target: Proto-oncogene tyrosine-protein kinase receptor Ret (Homo sapiens, UniProt P07949, V804M)
Chain of Proto-oncogene tyrosine-protein kinase receptor Ret (Homo sapiens, UniProt P07949, V804M) (P07949 29-1114 V804M limits assumed): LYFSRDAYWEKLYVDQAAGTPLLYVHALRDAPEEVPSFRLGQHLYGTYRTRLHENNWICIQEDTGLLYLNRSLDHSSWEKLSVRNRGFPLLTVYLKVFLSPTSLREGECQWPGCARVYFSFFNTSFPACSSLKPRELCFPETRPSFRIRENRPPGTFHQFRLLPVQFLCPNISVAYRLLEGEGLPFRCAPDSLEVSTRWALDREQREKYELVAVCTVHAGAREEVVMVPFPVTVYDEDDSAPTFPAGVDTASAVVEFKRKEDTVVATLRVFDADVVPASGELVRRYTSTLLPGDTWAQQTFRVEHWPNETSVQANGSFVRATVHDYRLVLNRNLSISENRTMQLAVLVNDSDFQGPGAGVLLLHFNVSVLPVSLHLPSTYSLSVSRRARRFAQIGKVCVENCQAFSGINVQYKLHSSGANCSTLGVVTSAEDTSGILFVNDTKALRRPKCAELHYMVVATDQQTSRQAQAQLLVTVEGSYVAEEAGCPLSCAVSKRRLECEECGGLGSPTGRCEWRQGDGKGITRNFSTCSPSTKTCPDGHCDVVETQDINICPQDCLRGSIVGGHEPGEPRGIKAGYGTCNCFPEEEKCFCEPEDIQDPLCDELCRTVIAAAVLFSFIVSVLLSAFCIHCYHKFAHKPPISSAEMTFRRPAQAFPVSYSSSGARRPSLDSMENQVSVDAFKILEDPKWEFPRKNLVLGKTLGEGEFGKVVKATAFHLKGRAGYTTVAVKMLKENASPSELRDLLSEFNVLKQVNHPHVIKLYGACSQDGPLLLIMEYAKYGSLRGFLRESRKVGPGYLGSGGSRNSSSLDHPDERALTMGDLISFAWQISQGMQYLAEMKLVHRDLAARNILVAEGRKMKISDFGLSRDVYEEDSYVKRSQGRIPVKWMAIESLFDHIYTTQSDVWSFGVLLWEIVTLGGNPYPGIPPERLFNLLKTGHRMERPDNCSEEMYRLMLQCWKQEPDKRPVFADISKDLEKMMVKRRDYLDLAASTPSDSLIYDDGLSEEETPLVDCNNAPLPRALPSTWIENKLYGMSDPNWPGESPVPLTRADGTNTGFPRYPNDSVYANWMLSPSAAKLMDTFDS

[5] = tested on: BaF3; format: functional; conditions: Mus musculus, BaF3, 72 h; time 3 day
[6] = tested on: BaF3; assay: Growth inhibition of mouse BaF3 cells harboring RET V804M mutant incubated for 3 days by MTT assay; format: functional; conditions: BaF3, 72 h, time 3 day
[7] = tested on: BaF3; assay: Growth inhibition of mouse BaF3 cells over expressing wild type RET incubated for 3 days by MTT assay; format: functional; conditions: BaF3, 72 h, time 3 day
[8] = tested on: BaF3; assay: Growth inhibition of mouse BaF3 cells incubated for 3 days by MTT assay; format: functional; conditions: BaF3, 72 h, time 3 day
[9] = Growth inhibition of […] NIH3T3 cells harboring RET C634Y mutant incubated for 3 days by MTT assay; format: functional; conditions: NIH3T3, 72 h; time 3 day
[10] = Growth inhibition of human TT cells incubated for 10 days by MTT assay; format: functional; conditions: 240 h, time 10 day
[11] = tested on: NIH3T3; conditions: Homo sapiens, dose 30.0 mg/kg, time 18.0 day
[12] = Toxicity in NOD-SCID mouse xenografted with […] cells harboring RET C634Y mutant assessed as reduction in body weight at 30 mg/kg, po administered for 18 days and measured on day 18; format: organism-based; conditions: in vivo, 432 h, time 18 day

Chain of Proto-oncogene tyrosine-protein kinase receptor Ret (Homo sapiens, UniProt P07949) (P07949 whole entry): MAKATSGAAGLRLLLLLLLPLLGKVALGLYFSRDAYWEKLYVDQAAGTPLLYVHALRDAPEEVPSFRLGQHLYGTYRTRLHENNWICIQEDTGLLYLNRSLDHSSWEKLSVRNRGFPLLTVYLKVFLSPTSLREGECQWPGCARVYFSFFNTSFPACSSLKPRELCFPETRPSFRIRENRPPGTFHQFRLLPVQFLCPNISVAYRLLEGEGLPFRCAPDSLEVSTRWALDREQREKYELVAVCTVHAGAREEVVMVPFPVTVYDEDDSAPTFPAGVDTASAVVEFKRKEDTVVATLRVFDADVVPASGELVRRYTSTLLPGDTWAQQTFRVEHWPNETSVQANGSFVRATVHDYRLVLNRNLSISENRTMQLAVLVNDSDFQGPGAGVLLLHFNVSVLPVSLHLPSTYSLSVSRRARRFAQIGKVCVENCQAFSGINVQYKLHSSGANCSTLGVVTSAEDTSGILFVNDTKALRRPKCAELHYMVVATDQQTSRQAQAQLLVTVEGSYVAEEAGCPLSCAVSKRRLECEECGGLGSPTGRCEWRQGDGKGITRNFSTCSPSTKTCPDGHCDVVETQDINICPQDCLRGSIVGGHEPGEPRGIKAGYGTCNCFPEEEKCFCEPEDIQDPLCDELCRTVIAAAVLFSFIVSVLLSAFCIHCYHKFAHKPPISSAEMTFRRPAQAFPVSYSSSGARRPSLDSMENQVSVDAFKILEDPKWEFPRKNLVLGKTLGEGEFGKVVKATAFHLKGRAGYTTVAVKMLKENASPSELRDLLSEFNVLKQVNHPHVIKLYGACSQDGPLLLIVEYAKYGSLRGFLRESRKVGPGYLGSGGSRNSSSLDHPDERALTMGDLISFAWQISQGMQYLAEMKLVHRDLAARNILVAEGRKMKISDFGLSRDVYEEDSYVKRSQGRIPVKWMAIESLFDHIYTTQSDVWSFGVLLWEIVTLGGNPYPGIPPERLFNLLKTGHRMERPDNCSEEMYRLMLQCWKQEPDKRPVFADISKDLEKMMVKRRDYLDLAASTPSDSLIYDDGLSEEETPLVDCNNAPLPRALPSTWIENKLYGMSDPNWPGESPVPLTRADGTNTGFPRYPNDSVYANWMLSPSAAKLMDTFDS

SMILES	IC50 [1] [µM]	GI50 [2] [µM]	IC50 [4] [µM]	GI50 [5] [µM]	GI50 [6] [µM]	GI50 [7] [µM]	GI50 [8] [µM]	GI50 [3] [µM]	GI50 [9] [µM]	GI50 [10] [µM]	TGI [11]	Activity [12]
CC(C)(C)c1cc(NC(=O)Nc2ccc(Nc3ncnc4c3OCCN4)cc2)no1	0.01	1.62	0.034	4.41	1.36	0.15	> 10	> 10	0.11	0.08		
Cc1cc(NC(=O)Nc2cc(C(C)(C)C)on2)ccc1Nc1ncnc2c1OCCN2	0.05	4.76	0.044	5.72	2.03	0.73	> 10	> 10	1.54	0.45		
COc1cc2/c(=N/c3ccc(Br)cc3F)nc[nH]c2cc1OCC1CCN(C)CC1 [VANDETANIB]		0.97		> 10	> 10	0.46	8.41	7.15	0.34	0.14		
CN1CCOc2c(Nc3ccc(NC(=O)Nc4cc(C(C)(C)C)on4)cc3)ncnc21	0.324	> 10	0.344	> 10	> 10	8.06	> 10	> 10	> 10	4.86		
CC(C)(C)c1cc(NC(=O)Nc2ccc(Nc3ncnc4c3OCCN4)c(O)c2)no1	0.025	8.81	0.063	6.02	1.87	3.37	> 10	> 10	1.55	0.8		
CC(C)(C)c1csc(NC(=O)Nc2ccc(Nc3ncnc4c3OCCN4)cc2)n1	3.15	> 10	5.17	> 10	> 10	> 10	> 10	> 10	> 10	> 10		
CC(C)(C)c1cc(NC(=O)Nc2ccc(Nc3ncnc4c3OCCN4)c(F)c2)no1	0.021	2.94	0.022	3.49	1.53	0.33	10	> 10	0.39	0.3		
COc1cc(NC(=O)Nc2cc(C(C)(C)C)on2)ccc1Nc1ncnc2c1OCCN2	0.022	> 10	0.033	> 10	> 10	4.7	> 10	> 10	2.7	3.03		
CC(C)(C)c1cc(NC(=O)Nc2ccc(Nc3ncnc4c3OCCN4)nc2)no1	0.077	> 10	0.18	> 10	> 10	4.12	> 10	> 10	10	2.56		
COc1cc2nccc(Oc3ccc(NC(=O)C4(C(=O)Nc5ccc(F)cc5)CC4)cc3)c2cc1OC [CABOZANTINIB]		1.45		1.53	2.8	0.15	9.36	> 10	0.1	0.2	Active	Non-Toxic
CN1CCCOc2c(Nc3ccc(NC(=O)Nc4cc(C(C)(C)C)on4)cc3)ncnc21	0.322	> 10	0.716	> 10	> 10	3.89	> 10	> 10	3.58	1.6		
Cc1nc(Nc2ncnc3c2OCCN3)ccc1NC(=O)Nc1cc(C(C)(C)C)on1	0.781	> 10	1.11	> 10	> 10	> 10	> 10	> 10	10	> 10		
CC(C)(C)c1cc(NC(=O)Nc2ccc(Nc3ncnc4c3OCCN4)cc2F)no1	0.01	0.59	0.057	5.23	4.72	0.09	> 10	> 10	0.13	0.08		
CC(C)N1CCOc2c(Nc3ccc(NC(=O)Nc4cc(C(C)(C)C)on4)cc3)ncnc21	8.77	8.61	5.37	7.98	8.98	5.16	> 10	> 10	3.12	5.1		
CC(C)(C)c1cc(NC(=O)Nc2cccc(Nc3ncnc4c3OCCN4)c2)no1	0.944	> 10	3.45	> 10	> 10	> 10	> 10	> 10	> 10	> 10		
CNC(=O)c1cc(Oc2ccc(NC(=O)Nc3ccc(Cl)c(C(F)(F)F)c3)cc2)ccn1 [SORAFENIB]		1.28		1.8	1.1	0.23	6.36	> 10	0.32	0.23	Active	Non-Toxic

Now from value to compound, other results behind:

IC50 [1] [µM]	GI50 [2] [µM]	IC50 [4] [µM]	GI50 [5] [µM]	GI50 [6] [µM]	GI50 [7] [µM]	GI50 [8] [µM]	SMILES	GI50 [3] [µM]	GI50 [9] [µM]	GI50 [10] [µM]	TGI [11]	Activity [12]
0.865	> 10	1.3	> 10	> 10	> 10	10	O=C(Nc1ccc(Nc2ncnc3c2OCCN3)cc1)Nc1cc(Cl)cc(Cl)c1	> 10	8.05	> 10		
> 10	> 10	> 10	> 10	> 10	> 10	> 10	O=C(Nc1ccc(Nc2ncnc3c2OCCN3)cc1)Nc1cccc2ccccc12	> 10	> 10	> 10		
> 10	> 10	8.64	> 10	> 10	> 10	> 10	O=C(Nc1ccc(Nc2ncnc3c2OCCN3)cc1)Nc1cccs1	> 10	> 10	> 10		
1.47	> 10	5.11	> 10	> 10	> 10	> 10	Cc1ccc(F)c(NC(=O)Nc2ccc(Nc3ncnc4c3OCCN4)cc2)c1	> 10	10	5.82		
3.07	> 10	2.28	> 10	> 10	> 10	> 10	O=C(Nc1ccc(Cl)cc1)Nc1ccc(Nc2ncnc3c2OCCN3)cc1	> 10	> 10	> 10		
6.81	> 10	5.29	> 10	> 10	> 10	> 10	COc1cccc(NC(=O)Nc2ccc(Nc3ncnc4c3OCCN4)cc2)c1	> 10	> 10	> 10		
2.22	> 10	2.35	> 10	> 10	> 10	10	O=C(Nc1ccc(Br)cc1)Nc1ccc(Nc2ncnc3c2OCCN3)cc1	> 10	8.92	10		
> 10	> 10	7.59	> 10	> 10	> 10	> 10	O=C(Nc1ccc(Nc2ncnc3c2OCCN3)cc1)Nc1cccc(-c2ccccc2)c1	> 10	10	> 10		
1.07	> 10	0.971	> 10	> 10	> 10	> 10	Cc1cc(C)cc(NC(=O)Nc2ccc(Nc3ncnc4c3OCCN4)cc2)c1	> 10	7.08	5.65		
0.306	> 10	0.276	> 10	8.49	4.4	10	O=C(Nc1ccc(Nc2ncnc3c2OCCN3)cc1)Nc1ccc(C(F)(F)F)cc1	> 10	3.14	6.65		
0.227	> 10	0.824	> 10	> 10	> 10	> 10	COc1ccc(NC(=O)Nc2ccc(Nc3ncnc4c3OCCN4)cc2)cc1	> 10	> 10	6.12		
0.177	9.94	0.188	> 10	> 10	3.07	> 10	O=C(Nc1ccc(Nc2ncnc3c2OCCN3)cc1)Nc1ccc(Cl)c(C(F)(F)F)c1	> 10	2.29	1.99		
